In ChEMBL document CHEMBL3991601, “The target landscape of clinical kinase drugs” (Science, 2017) one finds Kd data, which are given here for eight compounds.

Targets include Actin-related protein 2 (Homo sapiens, UniProt P61160); LIM domain kinase 2 (Homo sapiens, UniProt P53671); Aurora kinase B (Homo sapiens, UniProt Q96GD4).
In test [1] the target is T1, Serine/threonine-protein kinase PLK4 (Homo sapiens, UniProt O00444).
T1 sequence (O00444 whole entry): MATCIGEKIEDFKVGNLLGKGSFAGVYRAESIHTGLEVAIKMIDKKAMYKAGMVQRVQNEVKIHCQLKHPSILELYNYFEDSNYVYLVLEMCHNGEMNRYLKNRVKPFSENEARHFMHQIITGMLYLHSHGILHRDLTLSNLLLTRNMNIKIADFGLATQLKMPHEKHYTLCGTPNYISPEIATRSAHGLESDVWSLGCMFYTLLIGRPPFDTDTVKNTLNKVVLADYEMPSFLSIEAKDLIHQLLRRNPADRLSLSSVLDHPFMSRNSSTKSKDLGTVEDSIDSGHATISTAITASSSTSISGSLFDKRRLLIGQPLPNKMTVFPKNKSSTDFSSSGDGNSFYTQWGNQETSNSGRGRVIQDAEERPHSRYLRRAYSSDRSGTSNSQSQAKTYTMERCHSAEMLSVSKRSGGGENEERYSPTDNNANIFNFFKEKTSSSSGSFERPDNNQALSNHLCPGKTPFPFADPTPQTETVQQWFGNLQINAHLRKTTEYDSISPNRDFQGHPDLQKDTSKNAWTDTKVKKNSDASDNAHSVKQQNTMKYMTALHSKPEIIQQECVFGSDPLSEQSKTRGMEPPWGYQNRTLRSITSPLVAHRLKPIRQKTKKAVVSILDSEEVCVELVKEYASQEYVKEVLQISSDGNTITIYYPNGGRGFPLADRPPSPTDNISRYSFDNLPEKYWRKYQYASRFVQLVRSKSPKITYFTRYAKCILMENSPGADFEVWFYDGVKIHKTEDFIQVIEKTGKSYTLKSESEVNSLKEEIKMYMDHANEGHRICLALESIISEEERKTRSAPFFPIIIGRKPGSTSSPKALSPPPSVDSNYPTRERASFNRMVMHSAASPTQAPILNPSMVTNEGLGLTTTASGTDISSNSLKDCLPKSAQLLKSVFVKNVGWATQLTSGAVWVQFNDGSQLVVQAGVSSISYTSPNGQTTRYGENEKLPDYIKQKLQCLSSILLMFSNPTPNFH

Test [2] deals with AP2-associated protein kinase 1 (Homo sapiens, UniProt Q2M2I8).
The target of test [3] is G protein-coupled receptor kinase 6 (Homo sapiens, UniProt P43250).
Test [4] concerns the target Tyrosine-protein kinase JAK1 (Homo sapiens, UniProt P23458).
The target in test [5] is Calcium/calmodulin-dependent protein kinase type II subunit delta (Homo sapiens, UniProt Q13557).
The target in test [6] is Maternal embryonic leucine zipper kinase (Homo sapiens, UniProt Q14680).
Test [7] deals with Mitogen-activated protein kinase 8 (Homo sapiens, UniProt P45983).
In test [8] the target is GTP-binding nuclear protein Ran (Homo sapiens, UniProt P62826).
Test [9] deals with Ribosomal protein S6 kinase alpha-1 (Homo sapiens, UniProt Q15418).
Test [10] deals with Serine/threonine-protein kinase N1 (Homo sapiens, UniProt Q16512).
Test [11] concerns the target T2, Ferrochelatase, mitochondrial (Homo sapiens, UniProt P22830).
T2 sequence (P22830 whole entry): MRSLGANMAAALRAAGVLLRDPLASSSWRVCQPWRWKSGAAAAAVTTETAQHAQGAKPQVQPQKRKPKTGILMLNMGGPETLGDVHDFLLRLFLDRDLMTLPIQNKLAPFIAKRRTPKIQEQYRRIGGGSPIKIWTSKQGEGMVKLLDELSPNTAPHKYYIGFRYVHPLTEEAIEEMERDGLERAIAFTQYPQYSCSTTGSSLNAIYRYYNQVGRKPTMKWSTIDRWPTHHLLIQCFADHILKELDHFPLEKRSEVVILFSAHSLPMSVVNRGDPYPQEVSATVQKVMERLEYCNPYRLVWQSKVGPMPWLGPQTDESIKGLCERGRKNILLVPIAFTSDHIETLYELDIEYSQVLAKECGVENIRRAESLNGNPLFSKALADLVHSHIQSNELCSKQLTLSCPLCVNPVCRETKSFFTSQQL

Test [12] has as its target Tyrosine-protein kinase ABL1 (Homo sapiens, UniProt P00519).
The target in test [13] is 26S proteasome regulatory subunit 6B (Homo sapiens, UniProt P43686).
Test [14] addresses Serine/threonine-protein kinase MRCK beta (Homo sapiens, UniProt Q9Y5S2).

Activity calls are given as the source filed them. Cut-off read from the data, not from the text of the source, for most assays here: actives have a measured Kd and inactives only a lower limit.
Note: in the data inactive means no Kd found up to 30 µM.

Sequence of Aurora kinase B (Q96GD4 whole entry): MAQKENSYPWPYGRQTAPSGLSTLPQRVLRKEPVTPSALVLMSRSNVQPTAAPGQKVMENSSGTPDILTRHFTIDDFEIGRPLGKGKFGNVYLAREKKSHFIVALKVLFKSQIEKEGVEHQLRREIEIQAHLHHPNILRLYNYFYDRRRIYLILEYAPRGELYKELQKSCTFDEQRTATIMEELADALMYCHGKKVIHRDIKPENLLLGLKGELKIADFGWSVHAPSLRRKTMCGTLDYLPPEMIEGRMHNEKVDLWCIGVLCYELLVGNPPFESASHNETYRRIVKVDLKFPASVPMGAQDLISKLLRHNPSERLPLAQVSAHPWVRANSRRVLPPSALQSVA
Sequence of LIM domain kinase 2 (P53671 whole entry, the tested form may be a part): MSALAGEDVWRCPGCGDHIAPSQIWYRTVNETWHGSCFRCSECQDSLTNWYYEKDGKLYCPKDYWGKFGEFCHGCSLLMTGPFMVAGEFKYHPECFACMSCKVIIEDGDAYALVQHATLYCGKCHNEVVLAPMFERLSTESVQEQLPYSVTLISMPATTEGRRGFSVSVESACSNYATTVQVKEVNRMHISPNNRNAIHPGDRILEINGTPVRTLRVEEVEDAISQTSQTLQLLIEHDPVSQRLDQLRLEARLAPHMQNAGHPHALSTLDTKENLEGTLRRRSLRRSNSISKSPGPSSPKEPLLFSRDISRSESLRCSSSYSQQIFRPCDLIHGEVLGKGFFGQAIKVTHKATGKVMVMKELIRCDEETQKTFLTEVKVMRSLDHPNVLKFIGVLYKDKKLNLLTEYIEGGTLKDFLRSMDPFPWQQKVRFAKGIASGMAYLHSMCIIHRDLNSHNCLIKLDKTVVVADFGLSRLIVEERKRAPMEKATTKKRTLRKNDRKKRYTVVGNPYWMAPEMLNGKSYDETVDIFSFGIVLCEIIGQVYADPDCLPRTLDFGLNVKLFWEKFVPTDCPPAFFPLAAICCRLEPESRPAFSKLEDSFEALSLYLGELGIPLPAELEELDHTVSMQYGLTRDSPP
Sequence of Mitogen-activated protein kinase 8 (P45983 whole entry): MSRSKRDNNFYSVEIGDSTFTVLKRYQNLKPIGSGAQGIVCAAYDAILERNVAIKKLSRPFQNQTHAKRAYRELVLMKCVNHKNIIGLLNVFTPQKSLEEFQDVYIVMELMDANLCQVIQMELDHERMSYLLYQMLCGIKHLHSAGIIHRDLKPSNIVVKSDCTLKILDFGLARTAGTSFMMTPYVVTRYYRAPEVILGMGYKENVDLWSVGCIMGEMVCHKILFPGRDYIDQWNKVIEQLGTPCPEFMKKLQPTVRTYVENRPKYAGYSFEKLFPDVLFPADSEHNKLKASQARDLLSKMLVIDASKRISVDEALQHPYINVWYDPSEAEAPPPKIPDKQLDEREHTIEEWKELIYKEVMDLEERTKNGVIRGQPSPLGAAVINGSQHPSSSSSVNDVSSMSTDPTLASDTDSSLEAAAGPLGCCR
Sequence of Serine/threonine-protein kinase MRCK beta (Q9Y5S2 whole entry): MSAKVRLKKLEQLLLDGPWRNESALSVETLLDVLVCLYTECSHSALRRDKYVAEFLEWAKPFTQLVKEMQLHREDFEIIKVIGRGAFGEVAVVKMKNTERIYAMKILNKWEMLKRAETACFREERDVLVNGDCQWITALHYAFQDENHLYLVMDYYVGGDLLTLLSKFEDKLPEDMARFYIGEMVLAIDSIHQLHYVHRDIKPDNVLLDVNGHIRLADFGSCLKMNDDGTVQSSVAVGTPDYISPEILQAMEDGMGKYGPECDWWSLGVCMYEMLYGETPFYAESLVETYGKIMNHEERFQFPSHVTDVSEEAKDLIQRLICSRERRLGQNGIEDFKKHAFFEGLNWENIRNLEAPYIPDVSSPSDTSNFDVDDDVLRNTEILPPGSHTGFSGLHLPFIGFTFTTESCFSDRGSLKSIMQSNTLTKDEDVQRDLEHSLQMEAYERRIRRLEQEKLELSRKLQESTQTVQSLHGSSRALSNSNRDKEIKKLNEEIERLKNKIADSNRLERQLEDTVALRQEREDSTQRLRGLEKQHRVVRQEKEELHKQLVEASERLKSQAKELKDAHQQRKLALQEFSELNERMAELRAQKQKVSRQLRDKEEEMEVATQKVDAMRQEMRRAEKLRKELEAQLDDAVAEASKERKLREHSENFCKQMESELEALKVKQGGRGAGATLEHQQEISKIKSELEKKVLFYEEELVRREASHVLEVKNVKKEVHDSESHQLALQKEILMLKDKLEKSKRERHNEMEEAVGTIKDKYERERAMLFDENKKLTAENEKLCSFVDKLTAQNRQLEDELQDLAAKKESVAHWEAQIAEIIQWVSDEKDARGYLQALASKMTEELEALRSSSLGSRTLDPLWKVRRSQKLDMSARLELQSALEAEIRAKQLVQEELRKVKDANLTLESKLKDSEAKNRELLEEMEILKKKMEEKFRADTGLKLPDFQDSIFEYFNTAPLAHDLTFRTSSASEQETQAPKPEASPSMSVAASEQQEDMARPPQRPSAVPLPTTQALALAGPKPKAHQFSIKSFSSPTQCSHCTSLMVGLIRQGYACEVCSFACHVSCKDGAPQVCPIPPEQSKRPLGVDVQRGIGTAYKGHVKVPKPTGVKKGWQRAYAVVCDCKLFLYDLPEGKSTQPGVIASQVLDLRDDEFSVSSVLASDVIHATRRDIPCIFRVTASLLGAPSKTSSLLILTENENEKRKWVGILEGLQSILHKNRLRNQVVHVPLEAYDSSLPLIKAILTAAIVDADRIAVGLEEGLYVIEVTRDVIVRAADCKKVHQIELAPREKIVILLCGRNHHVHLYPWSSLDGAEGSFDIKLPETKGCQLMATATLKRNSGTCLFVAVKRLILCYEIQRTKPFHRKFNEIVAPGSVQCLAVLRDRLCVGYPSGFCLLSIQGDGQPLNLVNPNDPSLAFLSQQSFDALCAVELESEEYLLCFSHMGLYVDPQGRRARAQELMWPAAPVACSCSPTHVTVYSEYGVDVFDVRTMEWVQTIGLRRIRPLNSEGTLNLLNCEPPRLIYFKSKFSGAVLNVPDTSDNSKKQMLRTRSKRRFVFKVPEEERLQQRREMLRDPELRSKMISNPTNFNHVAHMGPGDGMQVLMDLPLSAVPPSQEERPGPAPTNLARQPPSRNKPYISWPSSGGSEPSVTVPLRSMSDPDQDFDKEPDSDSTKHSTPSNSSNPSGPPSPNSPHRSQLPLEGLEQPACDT
Sequence of Ribosomal protein S6 kinase alpha-1 (Q15418 whole entry): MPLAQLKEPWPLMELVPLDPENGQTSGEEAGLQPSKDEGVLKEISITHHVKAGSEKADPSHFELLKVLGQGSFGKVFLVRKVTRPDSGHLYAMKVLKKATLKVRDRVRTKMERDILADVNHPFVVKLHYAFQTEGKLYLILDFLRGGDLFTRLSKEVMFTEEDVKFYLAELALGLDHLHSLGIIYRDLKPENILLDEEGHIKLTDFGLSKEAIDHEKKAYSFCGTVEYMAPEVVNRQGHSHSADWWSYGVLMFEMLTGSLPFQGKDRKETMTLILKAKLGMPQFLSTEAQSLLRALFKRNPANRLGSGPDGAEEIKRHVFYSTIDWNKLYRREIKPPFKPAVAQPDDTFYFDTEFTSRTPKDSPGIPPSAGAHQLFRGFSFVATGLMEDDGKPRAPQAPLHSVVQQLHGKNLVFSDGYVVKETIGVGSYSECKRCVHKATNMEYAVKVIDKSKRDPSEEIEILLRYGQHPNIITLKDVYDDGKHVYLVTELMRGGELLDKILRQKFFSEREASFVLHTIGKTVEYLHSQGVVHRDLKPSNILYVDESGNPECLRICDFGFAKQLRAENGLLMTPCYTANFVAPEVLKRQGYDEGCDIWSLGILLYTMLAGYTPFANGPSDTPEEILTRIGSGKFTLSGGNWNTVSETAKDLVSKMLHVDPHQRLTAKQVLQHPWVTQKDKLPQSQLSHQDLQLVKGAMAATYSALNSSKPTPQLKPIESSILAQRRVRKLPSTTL
Sequence of AP2-associated protein kinase 1 (Q2M2I8 whole entry): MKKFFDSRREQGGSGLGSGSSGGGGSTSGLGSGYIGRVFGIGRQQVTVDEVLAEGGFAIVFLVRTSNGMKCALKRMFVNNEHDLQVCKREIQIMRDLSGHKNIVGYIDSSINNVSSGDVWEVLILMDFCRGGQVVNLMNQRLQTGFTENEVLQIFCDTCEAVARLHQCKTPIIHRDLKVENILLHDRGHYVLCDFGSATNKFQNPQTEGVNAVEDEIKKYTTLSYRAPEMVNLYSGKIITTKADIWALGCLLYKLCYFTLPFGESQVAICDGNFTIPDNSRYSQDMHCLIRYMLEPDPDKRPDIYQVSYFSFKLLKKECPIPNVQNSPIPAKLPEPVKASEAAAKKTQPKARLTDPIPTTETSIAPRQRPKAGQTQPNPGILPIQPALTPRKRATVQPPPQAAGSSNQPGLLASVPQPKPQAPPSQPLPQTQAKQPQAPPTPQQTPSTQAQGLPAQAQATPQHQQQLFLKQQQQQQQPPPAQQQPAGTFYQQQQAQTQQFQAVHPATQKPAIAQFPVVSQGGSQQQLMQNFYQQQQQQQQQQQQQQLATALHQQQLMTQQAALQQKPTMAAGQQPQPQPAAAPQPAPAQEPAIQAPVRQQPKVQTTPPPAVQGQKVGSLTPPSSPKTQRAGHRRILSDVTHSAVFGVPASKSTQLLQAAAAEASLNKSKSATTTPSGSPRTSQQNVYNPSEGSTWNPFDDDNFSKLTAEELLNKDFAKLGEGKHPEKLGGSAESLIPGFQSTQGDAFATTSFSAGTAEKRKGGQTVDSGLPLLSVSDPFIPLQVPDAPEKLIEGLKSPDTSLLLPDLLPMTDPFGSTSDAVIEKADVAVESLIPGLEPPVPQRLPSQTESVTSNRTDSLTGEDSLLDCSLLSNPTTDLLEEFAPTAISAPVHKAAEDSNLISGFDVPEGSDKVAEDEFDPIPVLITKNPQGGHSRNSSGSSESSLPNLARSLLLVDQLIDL

As for `Cc1cc(C(=O)NOCCO)c(Nc2ccc(I)cc2F)n(C)c1=O` [AZD-8330], the Kd (in [1]; in test [2]; on Actin-related protein 2; in test [3]; in test [4]; in test [5]) was > 30 µM (inactive) in each case. Moreover, the Kd (in test [6]; in test [7]; in test [8]; at LIM domain kinase 2; in [9]; in test [10]) was > 30 µM (inactive) throughout. The Kd (in test [11]; at Aurora kinase B; in test [12]; in [13]; in [14]) was > 30 µM (inactive) throughout.

Turning to `CCn1c(C(=O)N(C2CC2)C2CC2)cc2c3c(ncn3C)c(Nc3cc(C)n(C)n3)nc21` [BMS-911543], the Kd (in test [1]; in [2]; on Actin-related protein 2; in test [3]; in test [4]; in test [5]) was > 30 µM (inactive) each time. Moreover, the Kd (in test [6]; in test [7]; in test [8]; on LIM domain kinase 2; in [9]; in [10]) was > 30 µM (inactive) throughout. In addition, the Kd (in test [11]; on Aurora kinase B; in [12]; in test [13]; in test [14]) was > 30 µM (inactive) in each case.

On to `NC1(c2ccc(-c3nc4ccn5c(=O)[nH]nc5c4cc3-c3ccccc3)cc2)CCC1` [MK-2206], for which the Kd (in [1]; in test [2]; at Actin-related protein 2; in [3]; in test [4]; in test [5]) was > 30 µM (inactive) each time. Also, the Kd (in test [6]; in [7]; in [8]; at LIM domain kinase 2; in test [9]; in test [10]) was > 30 µM (inactive) in each case. The Kd in test [11] was 1.07 µM (active); on Aurora kinase B, > 30 µM (inactive); in test [12] it was > 30 µM (inactive); in [13] it was > 30 µM (inactive); in test [14] it was > 30 µM (inactive).

For the compound `COc1ncc(-c2ccc3nccc(-c4ccnnc4)c3c2)cc1NS(=O)(=O)c1ccc(F)cc1F` [OMIPALISIB], the Kd (in test [1]; in [2]; at Actin-related protein 2; in [3]; in test [4]; in test [5]) was > 30 µM (inactive) throughout. Moreover, the Kd (in [6]; in test [7]; in test [8]; on LIM domain kinase 2; in [9]; in test [10]) was > 30 µM (inactive) each time. The Kd (in test [11]; on Aurora kinase B; in [12]; in test [13]; in test [14]) was > 30 µM (inactive) throughout.

As for `N#CC1(c2ccc(NC(=O)c3cccnc3NCc3ccncc3)cc2)CCCC1` [RIVOCERANIB], the Kd (in test [1]; in test [2]; at Actin-related protein 2; in test [3]; in [4]; in test [5]) was > 30 µM (inactive) throughout. Further, the Kd (in test [6]; in [7]; in [8]; on LIM domain kinase 2; in test [9]; in test [10]) was > 30 µM (inactive) in each case. Further, the Kd (in [11]; at Aurora kinase B; in test [12]; in test [13]; in test [14]) was > 30 µM (inactive) in each case.

Regarding `Cn1cc(-c2cnn3c(N)c(Br)c([C@@H]4CCCNC4)nc23)cn1` [SCH-900776], the Kd (in [1]; in test [2]; at Actin-related protein 2; in [3]; in [4]; in [5]) was > 30 µM (inactive) in each case. The dissociation constant (Kd) in test [6] was 4.69 µM (active); in [7], > 30 µM (inactive); in [8] it was > 30 µM (inactive); on LIM domain kinase 2 it was > 30 µM (inactive); in test [9], > 30 µM (inactive); in test [10], > 30 µM (inactive). Also, the Kd is > 30 µM (inactive) in test [11]; > 30 µM (inactive) on Aurora kinase B; > 30 µM (inactive) in [12]; 0.005 µM in test [13]; > 30 µM (inactive) in test [14].

As to `CO[C@H]1C[C@@H]2CC[C@@H](C)[C@@](O)(O2)C(=O)C(=O)N2CCCC[C@H]2C(=O)O[C@H]([C@H](C)C[C@@H]2CC[C@@H](O)[C@H](OC)C2)CC(=O)[C@H](C)/C=C(\C)[C@@H](O)[C@@H](OC)C(=O)[C@H](C)C[C@H](C)/C=C/C=C/C=C/1C` [SIROLIMUS], the Kd (in test [1]; in test [2]; at Actin-related protein 2; in [3]; in test [4]; in test [5]) was > 30 µM (inactive) in each case. The Kd (in test [6]; in test [7]; in [8]; at LIM domain kinase 2; in test [9]; in test [10]) was > 30 µM (inactive) in each case. The Kd (in [11]; at Aurora kinase B; in [12]; in [13]; in test [14]) was > 30 µM (inactive) in each case.

As to `O=C(Cc1ccc(-c2ccc(OCCN3CCOCC3)cc2)cn1)NCc1ccccc1` [TIRBANIBULIN], the Kd (in [1]; in [2]; on Actin-related protein 2; in test [3]; in test [4]; in test [5]) was > 30 µM (inactive) each time. Also, the Kd (in [6]; in test [7]; in test [8]; on LIM domain kinase 2; in test [9]; in test [10]) was > 30 µM (inactive) throughout. In addition, the Kd (in test [11]; on Aurora kinase B; in [12]; in test [13]; in test [14]) was > 30 µM (inactive) throughout.
